{"source": "patent US20250090498A1", "about": "“TREATMENT OF PRIMARY CTLA-4 CHECKPOINT RELATED IMMUNODEFICIENCIES” (ADIENNE PHARMA & BIOTECH SA, priority 2023, published 2025)", "key": {"[1]": {"experiment": "preliminary pharmacokinetics in serum after Eudragit-formulated 3-IAld (90% 3-IAld/10% 13C8-labeled 3-IAld), mass spectrometry", "type": "in vivo", "protocol": "Primary pharmacodynamics studies have been performed. The mode of action of 3-IAld occurs upon binding to AhR, both in vitro and in vivo. In vitro, 3-IAld induced luciferase activity in the H1L1.1c2 cell line containing a stably-transfected AhR-responsive firefly luciferase at the dose range […] (Zelante et al, 2013). […] Preliminary pharmacokinetics data have been obtained by administration of Eudragit-formulated 3-IAld in the composition 90% 3-IAld/10% 13C8-labeled 3-IAld and targeted/untargeted analysis by mass spectrometry in serum at different times (30 minutes (min), 1 hour (h), 2 h, 4.5h, 6 h, 24h). […] The presence of indole-3-formic acid was also confirmed with labelled 3-IAld (FIG. 13E), showing a similar kinetics and a peak level of about 25 μM at 30 min."}, "AhR": {"biological_target": "T1, AhR (Homo sapiens, UniProt P35869)", "T1 sequence (P35869 11-848)": "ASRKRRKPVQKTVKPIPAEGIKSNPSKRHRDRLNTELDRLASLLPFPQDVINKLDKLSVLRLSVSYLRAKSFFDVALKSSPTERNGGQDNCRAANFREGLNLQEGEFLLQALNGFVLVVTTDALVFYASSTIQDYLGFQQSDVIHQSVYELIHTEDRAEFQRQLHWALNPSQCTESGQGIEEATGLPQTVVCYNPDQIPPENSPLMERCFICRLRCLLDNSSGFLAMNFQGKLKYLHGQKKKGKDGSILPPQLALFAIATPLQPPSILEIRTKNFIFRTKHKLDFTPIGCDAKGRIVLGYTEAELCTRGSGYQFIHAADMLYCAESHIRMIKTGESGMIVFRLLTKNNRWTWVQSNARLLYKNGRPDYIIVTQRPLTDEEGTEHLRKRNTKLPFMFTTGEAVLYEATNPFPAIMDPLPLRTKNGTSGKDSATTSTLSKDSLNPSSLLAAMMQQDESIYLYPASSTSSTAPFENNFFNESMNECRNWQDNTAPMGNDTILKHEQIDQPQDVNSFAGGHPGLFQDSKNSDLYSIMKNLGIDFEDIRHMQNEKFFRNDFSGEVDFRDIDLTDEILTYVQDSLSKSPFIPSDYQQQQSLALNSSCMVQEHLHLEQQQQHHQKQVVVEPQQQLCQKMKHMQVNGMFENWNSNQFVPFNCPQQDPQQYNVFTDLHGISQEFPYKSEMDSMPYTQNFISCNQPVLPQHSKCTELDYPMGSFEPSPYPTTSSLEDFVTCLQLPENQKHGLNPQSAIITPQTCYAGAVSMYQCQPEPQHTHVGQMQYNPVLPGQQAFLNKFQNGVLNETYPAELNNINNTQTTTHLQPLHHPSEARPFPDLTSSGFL", "experiment": "Cyp1A1 induction in HepG2 liver cancer cell line", "type": "cell-based", "design": "endogenous in cells; host or cells: HepG2, A549, Calu-3, CaCo-2", "settings": "for induction of the AhR activation marker Cyp1A1 (mRNA): between 1 and 100 μM", "excerpt": "FIG. 14 graphically represents Cypla1 mRNA fold increase with the addition of 3-IAld or Ox-3-IAld."}, "[2]": {"experiment": "single-dose pharmacokinetic study in healthy C57BL/6 mice, tissues and serum by mass spectrometry", "quoted_text": "A single-dose pharmacokinetic (PK) study was performed on healthy C57BL/6 mice to compare 1ME3CA and 3-IAld at 0.36 mg/topo dose. Untreated naïve mice were used as the control. […] Blood, obtained by cardiac puncture and collected into EDTA-containing tubes, and organs (brain, lung, intestine, liver and kidney) were assessed. All samples were stored at −80° C. until use. To evaluate 1ME3CA and 3-IAld for functional activity, the expression of AhR-downstream genes were concomitantly evaluated in these mice."}}}
{"molecule": "COC(=O)c1c[nH]c2ccccc12", "note": "[Methyl indole-3-carboxylate]", "values": [{"measurement": "serum level of methylated forms of indole-3-formic acid at 1 hour", "setting": "[1]; in vivo", "result": "reduced levels"}]}
{"molecule": "O=C(O)c1c[nH]c2ccccc12", "note": "[indole-3-formic acid]", "values": [{"measurement": "pharmacological activity in vitro", "setting": "AhR", "result": "pharmacologically active"}, {"measurement": "induction of the AhR activation marker Cyp1A1 (mRNA)", "setting": "AhR", "result": "induce the AhR activation marker Cyp1A1 in a dose-dependent manner"}, {"measurement": "induction of the AhR activation marker Cyp1A1 (mRNA)", "setting": "AhR; listed as Ox-3-IAld", "result": "induction of the AhR activation marker Cyp1A1 in a dose-dependent manner"}, {"measurement": "concentrations in all organs", "setting": "[2]; after enteric 1ME3CA 18 mg/Kg", "result": "basal"}, {"measurement": "clearance of metabolites from the organs", "setting": "[2]; after oral 3-IAld 18 mg/Kg", "result": "rapid clearance"}, {"measurement": "presence as metabolite of 3-IAld in serum and other tissues", "setting": "[2]; after oral 3-IAld 18 mg/Kg", "result": "main metabolite"}]}
{"molecule": "Cn1c(C(=O)O)cc2ccccc21", "note": "[1-Methylindole-2-carboxylic acid]", "values": [{"measurement": "serum level of methylated forms of indole-3-formic acid at 1 hour", "setting": "[1]; 1 hour after 3-IAld", "result": "reduced levels"}, {"measurement": "peak serum level of methylated forms of indole-3-formic acid", "setting": "[1]; at 30 minutes after 3-IAld", "result": "about 150 nM"}]}
